In article PMC10555500, “Evaluation of the Antiproliferative Properties of CpRu Complexes Containing N-Methylated Triazaphosphaadamantane Derivatives” (Bioinorganic Chemistry and Applications, 2023):

What was measured:
[1] = test system: MDA-MB-231 breast cancer cells; experiment: MTT cytotoxicity assay, MDA-MB-231 cells; type: cell-based, human; details: for IC50: 24 h incubation, MTT, average of at least three experiments (±SD)
Method: (§1) The MDA-MB-231 and MCF-7 human breast cancer cells were purchased from ATCC. The MDA-MB-231 and MCF-7 cells were grown in Dulbecco's modified Eagles' medium (DMEM high glucose) (Capricorn Scientific) at 37°C in 5% CO2 supplemented with 10% fetal bovine serum (Capricorn Scientific). HDF cells were purchased from Merck and were grown in the fibroblast growth medium. All cells were adherent in monolayers and, upon confluence, were washed with phosphate buffer saline (PBS) and harvested by digestion with trypsin-EDTA 0.05% (v/v). The cells were suspended and transferred into new, sterile, culture flasks for maintenance or seeded in sterile test microplates for different assays. All cells were manipulated under aseptic conditions in a flow chamber.
(§2) The cells were adherent in monolayers and, upon confluence, were harvested by digestion with trypsin. The cytotoxicity of the complexes against the tumour cells was assessed using the colorimetric assay MTT […], which evaluates the metabolic activity of viable cells. This assay measures the conversion of yellow tetrazolium into purple formazan by an active mitochondrial dehydrogenase in living cells. For this purpose, the cells (10–20 × 10^3 in 200 μL of the medium) were seeded into 96-well plates and incubated in a 5% CO2 incubator at 37°C. The cells were settled for 24 h followed by the addition of a dilution series of the complexes in a medium (200 μL). The complexes were first solubilized in 100% DMSO, given a 10 mM stock solution, and then in a medium within the concentration range of 0.1–100 µM. […] After 24 h of incubation, the treatment solutions were removed by aspiration, and MTT solution (200 μL, 0.5 mg·mL^−1 in PBS) was added to each well. After 3 h at 37°C/5% CO2, the solution was removed, and the purple formazan crystals formed inside the cells were dissolved in DMSO (200 μL) by thorough shaking. The cellular viability was evaluated by measuring the absorbance at 570 nm by using a microplate spectrophotometer. The IC50 values were obtained by dose-response curves using the GraphPad Prism software (vs. 5).
The MDA-MB-231 and MCF-7 human breast cancer cells were purchased from ATCC. MDA-MB-231 and MCF-7 cells were grown in Dulbecco’s modified Eagles’s medium (DMEM high glucose) (Capricorn Scientific) at 37 °C in 5% CO2 supplemented with 10% fetal bovine serum (Capricorn Scientific). All cells were adherent in monolayers and, upon confluence, were washed with phosphate buffer saline (PBS) and harvested by digestion with Trypsin-EDTA 0.05% (v/v). The cells were suspended and transferred into new, sterile, culture flasks, for maintenance or seeded in sterile test microplates for different assays. All cells were manipulated under aseptic conditions in a flow chamber.
The cells were adherent in monolayers and, upon confluency, were harvested by digestion with trypsin. The cytotoxicity of the complexes against the tumour cells was assessed using the colorimetric assay MTT […], which evaluate the metabolic activity of viable cells. This assay measures the conversion of the yellow tetrazolium into purple formazan by an active mitochondrial dehydrogenase in living cells. For this purpose, cells (10-20 × 10^3 in 200 μL of medium) were seeded into 96-well plates and incubated in a 5% CO2 incubator at 37 °C. The cells were settled for 24 h followed by the addition of a dilution series of the complexes in medium (200 μL). The complexes were first solubilized in 100% DMSO, given a 10 mM stock solution, and then in medium within the concentration range of 0.1–100 µM. […] After 24 h of incubation, the treatment solutions were removed by aspiration, and MTT solution (200 μL, 0.5 mg·mL^-1 in PBS) was added to each well. After 3 h at 37 °C/5% CO2, the solution was removed, and the purple formazan crystals formed inside the cells were dissolved in DMSO (200 μL) by thorough shaking. […]

[2] = test system: MCF-7 breast cancer cells; experiment: MTT cytotoxicity assay, MCF-7 cells; type: cell-based, human; details: 24 h incubation, average of at least three experiments (±SD)
Method: as §1
The cells were adherent in monolayers and, upon confluence, were harvested by digestion with trypsin. The cytotoxicity of the complexes against the tumour cells was assessed using the colorimetric assay MTT […], which evaluates the metabolic activity of viable cells. This assay measures the conversion of yellow tetrazolium into purple formazan by an active mitochondrial dehydrogenase in living cells. For this purpose, the cells (10–20 × 10^3 in 200 μL of the medium) were seeded into 96-well plates and incubated in a 5% CO2 incubator at 37°C. The cells were settled for 24 h followed by the addition of a dilution series of the complexes in a medium (200 μL). The complexes were first solubilized in 100% DMSO, given a 10 mM stock solution, and then in a medium within the concentration range of 0.1–100 µM. […] The cellular viability was evaluated by measuring the absorbance at 570 nm by using a microplate spectrophotometer. […]
The cells were adherent in monolayers and, upon confluency, were harvested by digestion with trypsin. The cytotoxicity of the complexes against the tumour cells was assessed using the colorimetric assay MTT […], which evaluate the metabolic activity of viable cells. […]

[3] = test system: normal human fibroblasts (HDF); experiment: MTT cytotoxicity assay, normal human dermal fibroblasts; type: cell-based
Method: as §1, §2

[4] = target: human serum albumin (HSA) (Homo sapiens, UniProt P02768); experiment: Binding to human serum albumin by steady-state and time-resolved Trp214 fluorescence
human serum albumin (HSA), sequence (P02768 25-609): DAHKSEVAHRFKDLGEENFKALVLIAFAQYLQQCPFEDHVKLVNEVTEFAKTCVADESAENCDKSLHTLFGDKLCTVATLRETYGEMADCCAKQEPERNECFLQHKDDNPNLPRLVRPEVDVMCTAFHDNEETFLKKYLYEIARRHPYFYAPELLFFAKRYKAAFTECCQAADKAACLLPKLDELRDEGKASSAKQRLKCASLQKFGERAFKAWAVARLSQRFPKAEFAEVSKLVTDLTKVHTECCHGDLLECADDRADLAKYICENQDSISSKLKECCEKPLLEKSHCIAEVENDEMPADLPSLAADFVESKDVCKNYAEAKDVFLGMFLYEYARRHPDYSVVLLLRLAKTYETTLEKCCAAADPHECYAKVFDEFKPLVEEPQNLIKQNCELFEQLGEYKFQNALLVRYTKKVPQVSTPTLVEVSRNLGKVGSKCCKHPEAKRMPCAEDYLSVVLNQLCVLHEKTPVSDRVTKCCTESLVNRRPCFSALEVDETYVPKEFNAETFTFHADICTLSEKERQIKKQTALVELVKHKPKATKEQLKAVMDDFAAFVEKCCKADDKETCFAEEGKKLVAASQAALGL
Method: (§3) The stock solutions of HSA were freshly prepared for each experiment by gently dissolving protein in PBS pH 7.4 (tablets from Fisher) for 1 hour to allow protein to completely hydrate. The concentration of the protein in the stock solutions was determined by spectrophotometry using the molar absorption coefficient at 280 nm ε280(HSA) = 36,850 M^−1·cm^−1 [38].
In each essay, all spectroscopic measurements were carried out on individually prepared samples to ensure the same preincubation time at (37.0 ± 0.1)°C, the same % of DMSO in the final samples, and the same exposure to excitation light and to avoid the need for dilution corrections. Moreover, for a direct titration protocol, a highly concentrated stock solution of the compounds in the buffer would be required, which would raise solubility issues. Dimethylsulfoxide (DMSO, from Fisher) was used to prepare concentrated stock solutions of each complex, followed by appropriate dilution to obtain the desired concentration. The DMSO content was kept at 2% (v/v) in PBS pH 7.4 in all samples. Dilutions were carried out immediately before sample preparation.
Fluorescence measurements were performed at 25.0 ± 0.1°C. The final protein concentration in the individually prepared samples (3.72 to 5 μM) was kept constant in each assay, and the complex concentration was varied to obtain desired HSA: Ru-complex molar ratios ranging from 1 : 0.25 to 1 : 10. A control sample containing the same amount of protein and final DMSO content and with no complex was also prepared for each experiment. Appropriate blank samples with no protein but with the same complex concentrations were prepared as well for background correction.
The steady-state fluorescence intensity was measured with excitation at 295 nm, and emission spectra were collected with bandwidths of 4 nm for both excitation and emission. For Stern–Volmer plots, the fluorescence intensity with emission at 340 nm was selected because it is near the maximum emission wavelength (so the sensitivity is close to maximum), but it is further to red in relation to the water Raman scattering peak. These values were corrected for the absorption and emission inner filter effects using the absorbance recorded for each sample at the excitation and emission wavelengths used for the steady-state quenching analysis. For time-resolved fluorescence measurements, the single-photon-counting technique was used with nanoLED N-280 (Horiba Jobin Yvon) as the pulsed excitation source (280 nm) and with emission collected at 350 nm (13 nm emission bandwidth), eliminating the contribution of the emission by tyrosine residues.
The experimental fluorescence intensity decays of HSA in buffer solution can be described by a sum of exponentials:(1) It=∑i=1npiexp−t/τi, where pi and τi are the pre-exponential factors and lifetime of component i, respectively. The amplitude or normalized pre-exponential of each lifetime component αi is pi/Σipi with Σiαi = 1. Fluorescence decays were analysed by an iterative deconvolution method using the TRFA Data Processor software (version 1.4; Minsk, Belarus), and the instrument response function was obtained using scattering by a colloidal suspension of silica (Ludox®, Sigma-Aldrich) diluted in water. Criteria for judging the quality of the fit were reduced χ^2 close to 1 and a random distribution of weighted residuals and residual autocorrelation.
To evaluate changes in the quantum yield by processes affecting the fluorescence lifetimes of HSA, the amplitude-weighted mean fluorescence lifetime ( τ¯ ) was calculated using the following equation:(2) τ¯=∑i=1nαiτi.
as §3, with “dissolving the” for “dissolving”, “allow the” for “allow”, “of” for “of the”, “M^−1 cm^−1.[8] […]” for “M^−1·cm^−1 [38].”

[5] = Stability in DMSO-d6 and DMSO-d6/D2O monitored by 31P{1H} NMR; type: physicochemical; details: room temperature and 37°C, 48 h, 31P{1H} NMR
From the text: The assessment of the biological properties of the complexes requires their dissolution in a cell culture medium which is mainly constituted by water. When the complex is not hydrosoluble enough, the used protocol contemplates preliminary dissolution in DMSO before the addition to the culture medium. Thus, it is important to determine the stability and behaviour of the complexes in both DMSO and water/DMSO mixtures to check whether different species have been formed when dissolved. Dissolutions in DMSO-d6 and DMSO-d6/D2O of the new complexes 8 and 11 were monitored by ^31P{^1H} NMR over time at room temperature and 37°C. The stability studies of the rest of the complexes (1‐7, 9, 10) were published previously. All experiments were performed by a similar procedure: the complex (0.01 g) was introduced into a 5 mm NMR tube and dissolved in 0.5 mL of degassed solvent (DMSO-d6 and a 1 : 1 mixture of DMSO-d6/D2O). The solution was left at room temperature and monitored by ^31P{^1H} NMR first every 15 minutes, and later in longer periods. Stability was also monitored at incubation cell-based assay temperature (37°C).
All compounds were studied for their stability in 100% DMSO-d6 and DMSO-d6/D2O mixture by using NMR spectroscopy in common aerobic conditions. All experiments were performed by a similar procedure: the complex (0.01 g) was introduced into a 5 mm NMR tube and dissolved in 0.5 mL of degassed solvent (DMSO-d6 and a 1:1 mixture of DMSO-d6/D2O). The solution was left at room temperature and monitored by ^31P{^1H} NMR first every 15 minutes, and later in longer time periods. Stability was also monitored at incubation cell-based assays temperature (37 °C).

## C[N+]12CN3CN(C1)C[P]([Ru+]([Cl])[P](c1ccccc1)(c1ccccc1)c1ccccc1)(C3)C2.O=S(=O)([O-])C(F)(F)F.c1cc[cH-]c1 [Compound 6, [RuClCp(PPh3)(mPTA)](CF3SO3)]
[1]
  IC50: 8.3 ± 1.4 µM
[1]; MDA-MB-231, 24 h
  Fold increase in cytotoxicity with respect to complex 5: 7 fold

## CN1CN2CN(C)C[P]([Ru+2]([P](c3ccccc3)(c3ccccc3)c3ccccc3)[P](c3ccccc3)(c3ccccc3)c3ccccc3)(C1)C2.O=S(=O)([O-])C(F)(F)F.c1cc[cH-]c1 [Compound 10, [RuCp(dmoPTA)(PPh3)2](CF3SO3)]
[1]
  IC50: 0.84 ± 0.09 µM
[2]
  IC50: 0.4 ± 0.04 µM
[3]; 24 h incubation, MTT, normal human fibroblasts
  IC50: 1.47 ± 0.4 µM
[3]; selectivity HDF vs MCF-7
  Fold less cytotoxic for fibroblasts (HDF) than for MCF-7 cells: 2-3 fold
[3]; selectivity HDF vs MDA-MB-231
  Fold less cytotoxic for fibroblasts (HDF) than for MDA-MB-231 cells: 1.5 fold
[4]; 20 µM compound (1:4 HSA:compound), 24 h, λem 340 nm
  Emission intensity of Trp214 relative to value in the absence of compound: ~75%
[4]; HSA-Trp214 fluorescence
  Type of quenching: Static
[4]; steady-state emission, 24 h incubation
  Spectral shift of Trp214 emission: do not induce any spectral shift
[4]; time-resolved fluorescence, λem 350 nm
  Effect on amplitude-weighted mean fluorescence lifetime of HSA-Trp214: does not affect

## C[N+]12CN3CN(CP(C3)C1)C2 [Compound 2, N-methyl-1,3,5-triaza-7-phosphaadamantane]
[1]; Homo sapiens, MDA-MB-231
  IC50: > 100 µM

## [Cl][Ru+]([P]12CN3CN(CN(C3)C1)C2)[P]12CN3CN(CN(C3)C1)C2.c1cc[cH-]c1 [Compound 4, [RuClCp(PTA)2]]
[1]
  IC50: > 100 µM
[1]; MDA-MB-231, MTT, 24 h
  Cytotoxicity (in words): noncytotoxic

## CN1CN2C[NH+](C)C[P]([Ru+2]([P](c3ccccc3)(c3ccccc3)c3ccccc3)[S](C)(C)=O)(C1)C2.O=S(=O)([O-])C(F)(F)F.O=S(=O)([O-])C(F)(F)F.c1cc[cH-]c1 [Compound 8, [RuCp(DMSO-κS)(HdmoPTA)(PPh3)](CF3SO3)2]
[1]
  IC50: 15 ± 2.2 µM
[5]
  Stability in DMSO-d6: stable
  Stability in DMSO-d6/D2O (1:1): stable
